Assay type in all cases: cell-based
One assay has as its target T1, JAK1 (Homo sapiens, UniProt P23458).
T1 construct: endogenous in cells; host or cells: Jurkat cells
Briefly: Degradation-inducing effect on JAK in Jurkat cells (chemiluminescent Western blotting), JAK1. Conditions: 1 μmol/L, 6 hours; for JAK protein ratio of Jurkat cells after treatment of each test compound: JAK1: corrected by GAPDH, DMSO as 100%. How it is done: (§1) The degradation-inducing effect of the compound of the present invention on JAK family proteins was evaluated in vitro using Jurkat cells, of which cell line was derived from human leukemic T cells.
(§2) JAK1, JAK2, JAK3, and Tyk2-positive Jurkat cells were seeded at a density of 1×10^5 cells/mL on 10 cm diameter dishes and then cultured in RPMI 1640 medium (FUJIFILM Wako Pure Chemical: catalog number: 189-02025) containing 10% FBS (Thermo Fisher Scientific: catalog number: 10437-028) at 5% CO2 and 37° C. for 3 days. Then, each of the test compounds (compounds of Examples 1 to 11 and Comparative Examples 1 and 2) was added to the dish at a final concentration of 1 μmol/L, and the cells were cultured in the presence of the test compound for 6 hours. After that, the cell culture medium was collected in a 15 mL centrifuge tube (1000 rpm (240× g), room temperature, 5 min), followed by washing with PBS (1000 rpm (240× g), room temperature, 5 min). Then, the cells in the centrifuge tube were collected in a 1.5 mL tube (3000 rpm (860× g), 4° C., 5 min), lysed using RIPA buffer (25 mmol/L Tris-HCl (pH 7.4), 25 mmol/L NaCl, 0.5 mmol/L EGTA (pH 8.0), 0.1% SDS, 1% protease inhibitor), sonicated at ice temperature (cycles of [7.5 sec sonication, 5 sec off] for 5 min) and subjected to centrifugation (15000 rpm (21600× g), 4° C., 30 min). The thus-obtained supernatant was used as the protein solution. Using the BCA protein assay kit (Thermo Fisher Scientific: catalog number: 23225), the protein concentration of the protein solution of each test compound was measured according to the kit instructions, and then adjusted to 1.4 mg/mL with RIPA buffer. The thus-adjusted protein solutions were subjected to a fully automated Western blotting device (Simple Westerns Wes: proteinSimple) to detect the protein levels (JAK1, JAK2, JAK3, and Tyk2 as the target proteins, and GAPDH (Glyceraldehyde 3-phosphate dehydrogenase) as the internal standard protein) in the protein solutions by chemiluminescent Western blotting.
(§3) Furthermore, the luminescence levels of JAK1, JAK2, JAK3, and Tyk2 detected by chemiluminescent Western blotting were quantified numerically by using an analysis software (Compass software for Simple Western (version 4.0.0)) attached to the fully automated Western blotting device. The numerical values of the quantified luminescence levels were corrected by the protein levels of the internal standard protein, i.e., GAPDH, (target protein levels/GAPDH protein levels), and compared among the test compounds with dimethyl sulfoxide (DMSO) as 100%.

A further assay deals with T2, JAK2 (Homo sapiens, UniProt O60674).
T2 construct: endogenous in cells; host or cells: Jurkat cells
Put plainly: Degradation-inducing effect on JAK in Jurkat cells (chemiluminescent Western blotting), JAK2. As to conditions: 1 μmol/L, 6 hours, corrected by GAPDH, DMSO as 100%. How it is done: as §1, §2, §3

The next assay concerns the target T3, JAK3 (Homo sapiens, UniProt P52333).
T3 construct: endogenous in cells; host or cells: Jurkat cells
T3 sequence (P52333 1-1124): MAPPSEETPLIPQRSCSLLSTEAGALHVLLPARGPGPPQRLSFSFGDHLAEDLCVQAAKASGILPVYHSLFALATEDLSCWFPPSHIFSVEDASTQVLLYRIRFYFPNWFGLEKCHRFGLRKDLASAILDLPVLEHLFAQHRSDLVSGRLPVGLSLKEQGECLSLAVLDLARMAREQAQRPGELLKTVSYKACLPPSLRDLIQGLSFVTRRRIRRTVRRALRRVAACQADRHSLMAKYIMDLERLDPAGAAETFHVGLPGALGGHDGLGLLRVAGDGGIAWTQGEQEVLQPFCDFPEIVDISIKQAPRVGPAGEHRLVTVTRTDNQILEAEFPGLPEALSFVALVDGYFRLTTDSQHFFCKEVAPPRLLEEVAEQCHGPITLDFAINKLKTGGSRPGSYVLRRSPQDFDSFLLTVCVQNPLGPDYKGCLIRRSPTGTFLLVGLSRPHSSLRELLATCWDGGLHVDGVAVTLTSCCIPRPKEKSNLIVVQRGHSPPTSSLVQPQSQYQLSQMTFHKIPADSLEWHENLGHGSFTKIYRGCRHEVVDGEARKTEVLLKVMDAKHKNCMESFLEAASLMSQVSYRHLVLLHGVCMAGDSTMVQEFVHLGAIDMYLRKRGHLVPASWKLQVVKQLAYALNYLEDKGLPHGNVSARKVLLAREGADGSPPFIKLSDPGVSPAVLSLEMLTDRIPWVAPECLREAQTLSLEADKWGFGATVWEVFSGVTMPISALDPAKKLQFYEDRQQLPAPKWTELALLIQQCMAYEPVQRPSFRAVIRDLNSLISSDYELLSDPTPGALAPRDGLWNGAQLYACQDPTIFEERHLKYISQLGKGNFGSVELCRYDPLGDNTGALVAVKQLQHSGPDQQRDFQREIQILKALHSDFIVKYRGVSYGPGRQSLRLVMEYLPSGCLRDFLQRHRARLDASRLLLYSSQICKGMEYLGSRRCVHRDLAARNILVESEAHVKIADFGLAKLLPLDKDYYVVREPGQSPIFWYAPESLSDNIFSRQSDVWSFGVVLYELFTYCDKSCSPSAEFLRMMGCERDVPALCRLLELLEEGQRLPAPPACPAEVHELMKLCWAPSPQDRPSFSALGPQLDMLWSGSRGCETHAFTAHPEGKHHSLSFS
Put plainly: Degradation-inducing effect on JAK in Jurkat cells (chemiluminescent Western blotting), JAK3. Conditions: 1 μmol/L, 6 hours, corrected by GAPDH, DMSO as 100%, read-out: JAK protein ratio of Jurkat cells after treatment of each test compound: JAK3. Here is the method:
as §1, §2, §3

For the next assay, the target named is T4, Tyk2 (Homo sapiens, UniProt P29597).
T4 construct: endogenous in cells; host or cells: Jurkat cells
Put plainly: Degradation-inducing effect on JAK in Jurkat cells (chemiluminescent Western blotting), Tyk2. Conditions: 1 μmol/L, 6 hours; for JAK protein ratio of Jurkat cells after treatment of each test compound: Tyk2: corrected by GAPDH, DMSO as 100%. How it is done: as §1, §2, §3

SMILES strings stand for the structures.

T4 sequence (P29597 whole entry): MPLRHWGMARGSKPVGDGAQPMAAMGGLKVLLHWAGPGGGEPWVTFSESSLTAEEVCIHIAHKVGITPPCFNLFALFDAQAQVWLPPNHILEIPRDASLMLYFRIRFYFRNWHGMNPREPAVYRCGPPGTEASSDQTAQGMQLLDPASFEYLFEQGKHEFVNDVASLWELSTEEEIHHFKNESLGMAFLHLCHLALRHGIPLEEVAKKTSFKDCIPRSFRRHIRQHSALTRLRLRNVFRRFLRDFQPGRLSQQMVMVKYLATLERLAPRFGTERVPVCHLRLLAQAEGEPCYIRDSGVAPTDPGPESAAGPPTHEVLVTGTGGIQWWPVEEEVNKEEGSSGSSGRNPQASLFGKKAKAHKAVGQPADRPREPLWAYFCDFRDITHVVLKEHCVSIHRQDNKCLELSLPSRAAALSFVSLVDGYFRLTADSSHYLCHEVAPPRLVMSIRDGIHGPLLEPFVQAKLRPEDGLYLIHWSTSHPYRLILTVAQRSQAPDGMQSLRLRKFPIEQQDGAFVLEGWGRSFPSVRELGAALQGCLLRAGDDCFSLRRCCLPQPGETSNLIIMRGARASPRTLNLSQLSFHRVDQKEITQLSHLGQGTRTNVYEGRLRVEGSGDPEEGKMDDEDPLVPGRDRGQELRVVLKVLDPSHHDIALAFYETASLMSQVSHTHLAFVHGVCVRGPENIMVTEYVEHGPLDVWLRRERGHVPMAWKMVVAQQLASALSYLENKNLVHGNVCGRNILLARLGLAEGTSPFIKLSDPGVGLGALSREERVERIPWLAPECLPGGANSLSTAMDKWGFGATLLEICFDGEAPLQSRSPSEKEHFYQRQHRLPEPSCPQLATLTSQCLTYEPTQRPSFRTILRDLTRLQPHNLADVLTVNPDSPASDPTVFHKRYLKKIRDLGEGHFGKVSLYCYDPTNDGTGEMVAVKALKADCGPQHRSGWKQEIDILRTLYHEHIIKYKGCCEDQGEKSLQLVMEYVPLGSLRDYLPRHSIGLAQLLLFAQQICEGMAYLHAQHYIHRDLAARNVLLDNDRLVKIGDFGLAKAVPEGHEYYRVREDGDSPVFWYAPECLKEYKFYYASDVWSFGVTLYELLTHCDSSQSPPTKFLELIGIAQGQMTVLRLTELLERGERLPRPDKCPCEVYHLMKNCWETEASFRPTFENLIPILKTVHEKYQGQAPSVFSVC
T2 sequence (O60674 whole entry): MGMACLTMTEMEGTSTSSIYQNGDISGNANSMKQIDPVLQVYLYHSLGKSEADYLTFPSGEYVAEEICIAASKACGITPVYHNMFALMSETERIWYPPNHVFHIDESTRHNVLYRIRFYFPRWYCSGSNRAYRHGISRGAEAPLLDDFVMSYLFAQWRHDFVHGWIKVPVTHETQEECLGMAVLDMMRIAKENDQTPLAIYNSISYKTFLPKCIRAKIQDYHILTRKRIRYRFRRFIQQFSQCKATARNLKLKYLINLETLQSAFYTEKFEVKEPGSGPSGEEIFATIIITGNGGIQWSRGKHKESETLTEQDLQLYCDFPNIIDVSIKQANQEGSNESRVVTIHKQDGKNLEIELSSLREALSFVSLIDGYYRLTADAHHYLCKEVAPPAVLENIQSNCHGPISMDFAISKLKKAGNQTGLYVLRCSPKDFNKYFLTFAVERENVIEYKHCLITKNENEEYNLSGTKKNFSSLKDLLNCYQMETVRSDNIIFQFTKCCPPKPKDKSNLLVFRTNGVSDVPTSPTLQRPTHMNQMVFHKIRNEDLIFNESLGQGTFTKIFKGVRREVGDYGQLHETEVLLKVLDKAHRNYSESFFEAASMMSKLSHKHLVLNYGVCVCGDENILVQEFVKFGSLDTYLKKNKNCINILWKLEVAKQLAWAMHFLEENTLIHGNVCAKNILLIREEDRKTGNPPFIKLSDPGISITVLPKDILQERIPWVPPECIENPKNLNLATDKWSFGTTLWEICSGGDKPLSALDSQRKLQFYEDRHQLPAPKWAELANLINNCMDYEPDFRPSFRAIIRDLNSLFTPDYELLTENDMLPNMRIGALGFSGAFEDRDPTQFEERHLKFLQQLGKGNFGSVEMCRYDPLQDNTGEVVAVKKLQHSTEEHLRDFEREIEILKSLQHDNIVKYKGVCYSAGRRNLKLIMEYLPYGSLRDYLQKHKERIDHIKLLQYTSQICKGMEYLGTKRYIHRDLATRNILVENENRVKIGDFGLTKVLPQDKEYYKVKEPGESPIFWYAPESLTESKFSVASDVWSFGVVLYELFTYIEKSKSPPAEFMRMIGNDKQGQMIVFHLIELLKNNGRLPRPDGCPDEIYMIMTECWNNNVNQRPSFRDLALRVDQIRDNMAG
T1 sequence (P23458 whole entry): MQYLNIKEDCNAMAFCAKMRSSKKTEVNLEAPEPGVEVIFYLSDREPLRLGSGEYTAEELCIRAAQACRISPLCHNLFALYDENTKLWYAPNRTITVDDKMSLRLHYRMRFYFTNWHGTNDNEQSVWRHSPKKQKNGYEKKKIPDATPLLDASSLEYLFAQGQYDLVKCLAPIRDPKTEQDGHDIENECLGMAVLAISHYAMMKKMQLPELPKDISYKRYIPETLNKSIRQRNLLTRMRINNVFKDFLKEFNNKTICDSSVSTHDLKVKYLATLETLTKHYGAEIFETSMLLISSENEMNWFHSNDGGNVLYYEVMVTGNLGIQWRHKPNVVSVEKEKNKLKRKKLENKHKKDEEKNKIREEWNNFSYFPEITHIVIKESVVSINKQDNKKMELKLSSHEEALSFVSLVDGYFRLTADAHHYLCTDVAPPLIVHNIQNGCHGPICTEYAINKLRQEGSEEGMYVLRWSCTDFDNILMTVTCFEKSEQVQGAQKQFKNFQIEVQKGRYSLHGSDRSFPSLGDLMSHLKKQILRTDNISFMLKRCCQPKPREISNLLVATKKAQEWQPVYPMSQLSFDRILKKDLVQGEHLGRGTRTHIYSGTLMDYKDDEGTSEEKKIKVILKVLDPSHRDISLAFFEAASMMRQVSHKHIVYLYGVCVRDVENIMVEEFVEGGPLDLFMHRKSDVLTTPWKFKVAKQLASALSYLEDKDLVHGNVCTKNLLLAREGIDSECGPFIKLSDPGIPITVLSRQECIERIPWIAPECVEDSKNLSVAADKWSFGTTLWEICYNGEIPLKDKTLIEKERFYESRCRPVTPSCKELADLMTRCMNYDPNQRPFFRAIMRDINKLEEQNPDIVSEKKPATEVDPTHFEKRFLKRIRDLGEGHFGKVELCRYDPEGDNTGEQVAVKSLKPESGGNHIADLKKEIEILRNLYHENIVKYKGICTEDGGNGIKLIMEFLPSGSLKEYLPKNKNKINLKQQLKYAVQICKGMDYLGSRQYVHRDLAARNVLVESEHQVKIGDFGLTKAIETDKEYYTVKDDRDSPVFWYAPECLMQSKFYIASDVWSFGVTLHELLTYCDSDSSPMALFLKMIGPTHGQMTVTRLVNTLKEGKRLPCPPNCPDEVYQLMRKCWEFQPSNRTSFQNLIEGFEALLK

Regarding `CNC(=O)c1cnc(Nc2ccc(C(=O)NCCCCCCCCCCC(=O)N[C@H](C(=O)N3C[C@H](O)C[C@H]3C(=O)NCc3ccc(-c4scnc4C)cc3)C(C)(C)C)cn2)cc1Nc1cccc(C(=O)NC)c1OC` [Example 6, 6-((5-((11-(((S)-1-((2S,4R)-4-Hydroxy-2-((4-(4-methylthiazol-5-yl)benzyl)carbamoyl)pyrrolidin-1-yl)-3,3-dimethyl-1-oxobutan-2-yl)amino)-11-oxoundecyl)carbamoyl)pyridin-2-yl)amino)-4-((2-methoxy-3-(methylcarbamoyl)phenyl)amino)-N-methylnicotinamide], the “JAK protein ratio of Jurkat cells after treatment of each test compound: JAK1” value (shortened to “JAK protein ratio of Jurkat cells … JAK1”) on JAK1 was found to be 113.2%. The “JAK protein ratio of Jurkat cells after treatment of each test compound: JAK2” value (from here on “JAK protein ratio of Jurkat cells … JAK2”) on JAK2 was determined as 139.8%. Further, the JAK3 protein level relative to DMSO at 1 µM on JAK3 came to 122%. In addition, on Tyk2, the “JAK protein ratio of Jurkat cells after treatment of each test compound: Tyk2” value (“JAK protein ratio of Jurkat cells … Tyk2” for short) was determined as 30.3%.
On to `CNC(=O)c1cnc(Nc2ccc(C(=O)NCCCCCCCCCCCC(=O)N[C@H](C(=O)N3C[C@H](O)C[C@H]3C(=O)NCc3ccc(-c4scnc4C)cc3)C(C)(C)C)cn2)cc1Nc1cccc(C(=O)NC)c1OC` [Example 7, 6-((5-((12-(((S)-1-((2S,4R)-4-Hydroxy-2-((4-(4-methylthiazol-5-yl)benzyl)carbamoyl)pyrrolidin-1-yl)-3,3-dimethyl-1-oxobutan-2-yl)amino)-12-oxododecyl)carbamoyl)pyridin-2-yl)amino)-4-((2-methoxy-3-(methylcarbamoyl)phenyl)amino)-N-methylnicotinamide], for which the “JAK protein ratio of Jurkat cells … JAK1” value on JAK1 amounted to 112.1%. In addition, the “JAK protein ratio of Jurkat cells … JAK2” value on JAK2 was found to be 108.2%. On JAK3, the JAK3 protein level relative to DMSO at 1 µM was 112%. The “JAK protein ratio of Jurkat cells … Tyk2” value at Tyk2 was 47.1%.
With `CNC(=O)c1cnc(Nc2ccc(C(=O)NCCCCCCCCCC(=O)N[C@H](C(=O)N3C[C@@H](O)C[C@H]3C(=O)NCc3ccc(-c4scnc4C)cc3)C(C)(C)C)cn2)cc1Nc1cccc(C(=O)NC)c1OC` [Example 8, 6-((5-((10-(((S)-1-((2S,4S)-4-Hydroxy-2-((4-(4-methylthiazol-5-yl)benzyl)carbamoyl)pyrrolidin-1-yl)-3,3-dimethyl-1-oxobutan-2-yl)amino)-10-oxodecyl)carbamoyl)pyridin-2-yl)amino)-4-((2-methoxy-3-(methylcarbamoyl)phenyl)amino)-N-methylnicotinamide], the “JAK protein ratio of Jurkat cells … JAK1” value at JAK1 is 102.6%. In addition, at JAK2, the “JAK protein ratio of Jurkat cells … JAK2” value is recorded as 122.5%. Moreover, the JAK3 protein level relative to DMSO at 1 µM on JAK3 came to 99%. For the same compound, at Tyk2, the “protein level of Tyk2 (in words)” value was “not reduced” and the “JAK protein ratio of Jurkat cells … Tyk2” value worked out at 97.0%.
Take `CNC(=O)c1cccc(Nc2cc(Nc3ccc(C(=O)NCCCCCCCCCC(=O)N[C@H](C(=O)N4C[C@H](O)C[C@H]4C(=O)NCc4ccc(-c5scnc5C)cc4)C(C)(C)C)cn3)ncc2C(N)=O)c1OC` [Example 9, 6-((5-Carbamoyl-4-((2-methoxy-3-(methylcarbamoyl)phenyl)amino)pyridin-2-yl)amino)-N-(10-(((S)-1-((2S,4R)-4-hydroxy-2-((4-(4-methylthiazol-5-yl)benzyl)carbamoyl)pyrrolidin-1-yl)-3,3-dimethyl-1-oxobutan-2-yl)amino)-10-oxodecyl) nicotinamide]: at JAK1, the “protein level of JAK1 (in words)” value is given as “reduced” and the “JAK protein ratio of Jurkat cells … JAK1” value is 57.6%. The “JAK protein ratio of Jurkat cells … JAK2” value at JAK2 was 115.9%. In addition, the JAK3 protein level relative to DMSO at 1 µM on JAK3 stood at 99.3%. In addition, the “JAK protein ratio of Jurkat cells … Tyk2” value at Tyk2 turned out to be 15.4%.
As for `CNC(=O)c1cnc(Nc2ccc(C(=O)NCCCCCCCCCC(=O)N[C@H](C(=O)N3C[C@H](O)C[C@H]3C(=O)NCc3ccc(-c4scnc4C)cc3)C(C)(C)C)cn2)cc1Nc1cccc(-c2ncn(C)n2)c1OC` [Example 10, 6-((5-((10-(((S)-1-((2S,4R)-4-hydroxy-2-((4-(4-methylthiazol-5-yl)benzyl)carbamoyl)pyrrolidin-1-yl)-3,3-dimethyl-1-oxobutan-2-yl)amino)-10-oxodecyl)carbamoyl)pyridin-2-yl)amino)-4-((2-methoxy-3-(1-methyl-^1H-1,2,4-triazol-3-yl)phenyl)amino)-N-methylnicotinamide], on JAK1, the “JAK protein ratio of Jurkat cells … JAK1” value worked out at 90.5%. The “JAK protein ratio of Jurkat cells … JAK2” value at JAK2 was 114.1%. In addition, the JAK3 protein level relative to DMSO at 1 µM on JAK3 is 111%. Further, the “JAK protein ratio of Jurkat cells … Tyk2” value on Tyk2 stood at 31.2%.
In the case of `CNC(=O)c1cnc(Nc2ccc(C(=O)NCCCCCCCCCC(=O)N[C@H](C(=O)N3C[C@H](O)C[C@H]3C(=O)NCc3ccc(-c4scnc4C)cc3)C(C)(C)C)cn2)cc1Nc1cccc(C(=O)NCCO)c1OC` [Example 11, 6-((5-((10-(((S)-1-((2S,4R)-4-hydroxy-2-((4-(4-methylthiazol-5-yl)benzyl)carbamoyl)pyrrolidin-1-yl)-3,3-dimethyl-1-oxobutan-2-yl)amino)-10-oxodecyl)carbamoyl)pyridin-2-yl)amino)-4-((3-((2-hydroxyethyl)carbamoyl)-2-methoxyphenyl)amino)-N-methylnicotinamide], the “JAK protein ratio of Jurkat cells … JAK1” value on JAK1 is given as 114.4%. The “JAK protein ratio of Jurkat cells … JAK2” value on JAK2 came to 132.2%. The JAK3 protein level relative to DMSO at 1 µM on JAK3 was found to be 103%. Also, on Tyk2, the “JAK protein ratio of Jurkat cells … Tyk2” value amounted to 55.1%.
